Assay results reported in patent publication US10004701B2, “Methods and compositions for treating infection” (UNIVERSITY OF ROCHESTER, priority 2012, dated 2018).
Where a name gives a salt, the structure may show the parent alone. Read-outs that look alike come from different tables or passages of the source.

How the values were obtained:
Assay in all cases: AK assay 384-well format, Prestwick library screening
P. aeruginosa = format: cell-based, Pseudomonas aeruginosa; details: for fold induction at 50 µM: Pseudomonas aeruginosa, 3 h
E. coli = format: cell-based, Escherichia coli; details: for fold induction at 50 µM: Escherichia coli, 3 h
E. faecium = format: cell-based, Enterococcus faecium; details: for fold induction at 50 µM: Enterococcus faecium, 3 h
[1] = tested on: S. aureus strain USA300-0114; format: cell-based, Staphylococcus aureus; details: for fold induction at 50 µM: Staphylococcus aureus, USA300, 3 h
[2] = tested on: A. baumannii strain 98-37-09; format: cell-based, Acinetobacter baumannii; details: for fold induction at 50 µM: Acinetobacter baumannii, 983709, 3 h
K. pneumoniae = format: cell-based, Klebsiella pneumoniae; details: for fold induction at 50 µM: Klebsiella pneumoniae, 3 h
E. cloacae = format: cell-based, Enterobacter cloacae; details: for fold induction at 50 µM: Enterobacter cloacae, 3 h
[3] = 50 μM final drug concentration, […]

`CC(=O)O[C@H]1CC[C@@]2(C)C(=CC[C@@H]3[C@@H]2CC[C@]2(C)C(=O)CC[C@@H]32)C1` [Dehydroisoandosterone 3-acetate] was tested, and the “AK-based Prestwick Library Screening Results, P. aeruginosa (fold increase in extracellular AK activity)” value (P. aeruginosa; [3]) was 1.1, the “AK-based Prestwick Library Screening Results, E. coli (fold increase in extracellular AK activity)” value (E. coli; [3]) was 1.0 and the “AK-based Prestwick Library Screening Results, E. faecium (fold increase in extracellular AK activity)” value (E. faecium; [3]) was 1.1. The “AK-based Prestwick Library Screening Results, S. aureus (fold increase in extracellular AK activity)” value [1, 3] was 0.8, the “AK-based Prestwick Library Screening Results, A. baumannii (fold increase in extracellular AK activity)” value [2, 3] was 1.1 and the “AK-based Prestwick Library Screening Results, K. pneumoniae (fold increase in extracellular AK activity)” value (K. pneumoniae; [3]) was 0.9. The “AK-based Prestwick Library Screening Results, E. cloacae (fold increase in extracellular AK activity)” value (E. cloacae; [3]) was 1.7.
For `C[C@]12CC[C@@H](O)C[C@H]1CC[C@@H]1[C@@H]2CC[C@]2(C)C(=O)CC[C@@H]12`, the “AK-based Prestwick Library Screening Results, P. aeruginosa (fold increase in extracellular AK activity)” value (P. aeruginosa) was 1.1, the “AK-based Prestwick Library Screening Results, E. coli (fold increase in extracellular AK activity)” value (E. coli) was 1.2 and the “AK-based Prestwick Library Screening Results, E. faecium (fold increase in extracellular AK activity)” value (E. faecium) was 1.0. For the same molecule, the “AK-based Prestwick Library Screening Results, S. aureus (fold increase in extracellular AK activity)” value [1] was 1.0, the “AK-based Prestwick Library Screening Results, A. baumannii (fold increase in extracellular AK activity)” value [2] was 0.9 and the “AK-based Prestwick Library Screening Results, K. pneumoniae (fold increase in extracellular AK activity)” value (K. pneumoniae) was 0.9. For the same molecule, the “AK-based Prestwick Library Screening Results, E. cloacae (fold increase in extracellular AK activity)” value (E. cloacae) was 1.9.
Molecule `O=C(O)Cc1ccccc1Nc1c(Cl)cccc1Cl` [Diclofenac sodium] has a fold induction at 50 µM (P. aeruginosa; planktonic P. aeruginosa, 50 μM final drug concentration, cutoff for positive-scoring molecules 3-fold increase, read-out: AK-based Prestwick Library Screening Results, P. aeruginosa (increase in extracellular AK activity)) of 0.9, a fold induction at 50 µM (E. coli; planktonic E. coli, 50 μM final drug concentration, cutoff for positive-scoring molecules 3-fold increase, read-out: AK-based Prestwick Library Screening Results, E. coli (increase in extracellular AK activity)) of 0.9 and a fold induction at 50 µM (E. faecium; planktonic E. faecium, 50 μM final drug concentration, cutoff for positive-scoring molecules 3-fold increase, read-out: AK-based Prestwick Library Screening Results, E. faecium (increase in extracellular AK activity)) of 0.9. It also gave a fold induction at 50 µM ([1]; planktonic S. aureus, 50 μM final drug concentration, cutoff for positive-scoring molecules 3-fold increase, read-out: AK-based Prestwick Library Screening Results, S. aureus (increase in extracellular AK activity)) of 0.8, a fold induction at 50 µM ([2]; planktonic A. baumannii, 50 μM final drug concentration, cutoff for positive-scoring molecules 3-fold increase, read-out: AK-based Prestwick Library Screening Results, A. baumannii (increase in extracellular AK activity)) of 0.8 and a fold induction at 50 µM (K. pneumoniae; planktonic K. pneumoniae, 50 μM final drug concentration, cutoff for positive-scoring molecules 3-fold increase, read-out: AK-based Prestwick Library Screening Results, K. pneumoniae (increase in extracellular AK activity)) of 0.7. It also gave a fold induction at 50 µM (E. cloacae; planktonic E. cloacae, 50 μM final drug concentration, cutoff for positive-scoring molecules 3-fold increase, read-out: AK-based Prestwick Library Screening Results, E. cloacae (increase in extracellular AK activity)) of 1.2.
Molecule `NC(=O)CN1CCCC1=O` [Piracetam] has a fold induction at 50 µM (P. aeruginosa; 50 μM final drug concentration, planktonic, cutoff for positive 3-fold increase, read-out: AK-based Prestwick Library Screening Results, P. aeruginosa (fold increase in extracellular AK activity)) of 1.1, a fold induction at 50 µM (E. coli; 50 μM final drug concentration, planktonic, cutoff for positive 3-fold increase, read-out: AK-based Prestwick Library Screening Results, E. coli (fold increase in extracellular AK activity)) of 1.1 and a fold induction at 50 µM (E. faecium; 50 μM final drug concentration, planktonic, cutoff for positive 3-fold increase, read-out: AK-based Prestwick Library Screening Results, E. faecium (fold increase in extracellular AK activity)) of 0.9. It also gave a fold induction at 50 µM ([1]; 50 μM final drug concentration, planktonic, cutoff for positive 3-fold increase, read-out: AK-based Prestwick Library Screening Results, S. aureus (fold increase in extracellular AK activity)) of 1, a fold induction at 50 µM ([2]; 50 μM final drug concentration, planktonic, cutoff for positive 3-fold increase, read-out: AK-based Prestwick Library Screening Results, A. baumannii (fold increase in extracellular AK activity)) of 0.9 and a fold induction at 50 µM (K. pneumoniae; 50 μM final drug concentration, planktonic, cutoff for positive 3-fold increase, read-out: AK-based Prestwick Library Screening Results, K. pneumoniae (fold increase in extracellular AK activity)) of 1. The fold induction at 50 µM (E. cloacae; 50 μM final drug concentration, planktonic, cutoff for positive 3-fold increase, read-out: AK-based Prestwick Library Screening Results, E. cloacae (fold increase in extracellular AK activity)) was 1.4.
With `NS(=O)(=O)c1cc(Cl)c(Cl)c(S(N)(=O)=O)c1` [Dichlorphenamide] the fold induction at 50 µM (P. aeruginosa; 50 μM final drug concentration, planktonic, cutoff for positive-scoring molecules 3-fold increase, read-out: AK-based Prestwick Library Screening Results, P. aeruginosa (fold increase in extracellular AK activity)) was 0.5, the fold induction at 50 µM (E. coli; 50 μM final drug concentration, planktonic, cutoff for positive-scoring molecules 3-fold increase, read-out: AK-based Prestwick Library Screening Results, E. coli (fold increase in extracellular AK activity)) was 0.6 and the fold induction at 50 µM (E. faecium; 50 μM final drug concentration, planktonic, cutoff for positive-scoring molecules 3-fold increase, read-out: AK-based Prestwick Library Screening Results, E. faecium (fold increase in extracellular AK activity)) was 1.1. The fold induction at 50 µM ([1]; 50 μM final drug concentration, planktonic, cutoff for positive-scoring molecules 3-fold increase, read-out: AK-based Prestwick Library Screening Results, S. aureus (fold increase in extracellular AK activity)) was 0.5, the fold induction at 50 µM ([2]; 50 μM final drug concentration, planktonic, cutoff for positive-scoring molecules 3-fold increase, read-out: AK-based Prestwick Library Screening Results, A. baumannii (fold increase in extracellular AK activity)) was 0.5 and the fold induction at 50 µM (K. pneumoniae; 50 μM final drug concentration, planktonic, cutoff for positive-scoring molecules 3-fold increase, read-out: AK-based Prestwick Library Screening Results, K. pneumoniae (fold increase in extracellular AK activity)) was 0.5. For the same molecule, the fold induction at 50 µM (E. cloacae; 50 μM final drug concentration, planktonic, cutoff for positive-scoring molecules 3-fold increase, read-out: AK-based Prestwick Library Screening Results, E. cloacae (fold increase in extracellular AK activity)) was 0.5.
In the case of `COc1cc2c(c(OC)c1OC)-c1ccc(OC)c(=O)cc1[C@@H](NC(C)=O)CC2` [Colchicine], the fold induction at 50 µM (P. aeruginosa; read-out: AK-based Prestwick Library Screening Results, P. aeruginosa (increase in extracellular AK activity)) was 1, the fold induction at 50 µM (E. coli; read-out: AK-based Prestwick Library Screening Results, E. coli (increase in extracellular AK activity)) was 1.2 and the fold induction at 50 µM (E. faecium; read-out: AK-based Prestwick Library Screening Results, E. faecium (increase in extracellular AK activity)) was 1. For the same molecule, the fold induction at 50 µM ([1]; read-out: AK-based Prestwick Library Screening Results, S. aureus (increase in extracellular AK activity)) was 1, the fold induction at 50 µM ([2]; read-out: AK-based Prestwick Library Screening Results, A. baumannii (increase in extracellular AK activity)) was 1 and the fold induction at 50 µM (K. pneumoniae; read-out: AK-based Prestwick Library Screening Results, K. pneumoniae (increase in extracellular AK activity)) was 0.9. For the same molecule, the fold induction at 50 µM (E. cloacae; read-out: AK-based Prestwick Library Screening Results, E. cloacae (increase in extracellular AK activity)) was 1.1.
Work on `Nc1ccn([C@H]2CC[C@@H](CO)O2)c(=O)n1` [Zalcitabine] yielded a fold induction at 50 µM (P. aeruginosa; planktonic P. aeruginosa, 50 μM final drug concentration, positive cutoff 3-fold increase, read-out: AK-based Prestwick library screening result, P. aeruginosa (fold increase in extracellular AK activity)) of 1, a fold induction at 50 µM (E. coli; planktonic E. coli, 50 μM final drug concentration, positive cutoff 3-fold increase, read-out: AK-based Prestwick library screening result, E. coli (fold increase in extracellular AK activity)) of 1.3 and a fold induction at 50 µM (E. faecium; planktonic E. faecium, 50 μM final drug concentration, positive cutoff 3-fold increase, read-out: AK-based Prestwick library screening result, E. faecium (fold increase in extracellular AK activity)) of 1.1. The fold induction at 50 µM ([1]; planktonic S. aureus, 50 μM final drug concentration, positive cutoff 3-fold increase, read-out: AK-based Prestwick library screening result, S. aureus (fold increase in extracellular AK activity)) was 1.1, the fold induction at 50 µM ([2]; planktonic A. baumannii, 50 μM final drug concentration, positive cutoff 3-fold increase, read-out: AK-based Prestwick library screening result, A. baumannii (fold increase in extracellular AK activity)) was 1.2 and the fold induction at 50 µM (K. pneumoniae; planktonic K. pneumoniae, 50 μM final drug concentration, positive cutoff 3-fold increase, read-out: AK-based Prestwick library screening result, K. pneumoniae (fold increase in extracellular AK activity)) was 1.1. It also gave a fold induction at 50 µM (E. cloacae; planktonic E. cloacae, 50 μM final drug concentration, positive cutoff 3-fold increase, read-out: AK-based Prestwick library screening result, E. cloacae (fold increase in extracellular AK activity)) of 1.8.
`C[C@@H]1C(=O)O[C@H]2C[C@@]34[C@H]5C[C@@H](C(C)(C)C)[C@]36[C@@H](OC(=O)[C@@H]6O)O[C@@]4(C(=O)O5)[C@]21O` [Ginkgolide A] was tested, and the “AK-based Prestwick Library Screening Results, P. aeruginosa (increase in extracellular AK activity)” value (P. aeruginosa; planktonic P. aeruginosa, 50 μM final drug concentration, […]) was 1.1, the “AK-based Prestwick Library Screening Results, E. coli (increase in extracellular AK activity)” value (E. coli; planktonic E. coli, 50 μM final drug concentration, […]) was 1.3 and the “AK-based Prestwick Library Screening Results, E. faecium (increase in extracellular AK activity)” value (E. faecium; planktonic E. faecium, 50 μM final drug concentration, […]) was 1.0. The “AK-based Prestwick Library Screening Results, S. aureus (increase in extracellular AK activity)” value ([1]; planktonic S. aureus, 50 μM final drug concentration, […]) was 1.1, the “AK-based Prestwick Library Screening Results, A. baumannii (increase in extracellular AK activity)” value ([2]; planktonic A. baumannii, 50 μM final drug concentration, […]) was 1.0 and the “AK-based Prestwick Library Screening Results, K. pneumoniae (increase in extracellular AK activity)” value (K. pneumoniae; planktonic K. pneumoniae, 50 μM final drug concentration, […]) was 1.0. The “AK-based Prestwick Library Screening Results, E. cloacae (increase in extracellular AK activity)” value (E. cloacae; planktonic E. cloacae, 50 μM final drug concentration, […]) was 1.2.
`CN(C)CCC=C1c2ccccc2COc2ccccc21` [Doxepin hydrochloride] showed a fold induction at 50 µM (P. aeruginosa; 50 μM final drug concentration, 384-well format, cutoff for positive-scoring molecules 3-fold increase, read-out: AK-based Prestwick Library Screening Results, P. aeruginosa (increase in extracellular AK activity)) of 1.1, a fold induction at 50 µM (E. coli; 50 μM final drug concentration, 384-well format, cutoff for positive-scoring molecules 3-fold increase, read-out: AK-based Prestwick Library Screening Results, E. coli (increase in extracellular AK activity)) of 1.1 and a fold induction at 50 µM (E. faecium; 50 μM final drug concentration, 384-well format, cutoff for positive-scoring molecules 3-fold increase, read-out: AK-based Prestwick Library Screening Results, E. faecium (increase in extracellular AK activity)) of 1. For the same molecule, the fold induction at 50 µM ([1]; 50 μM final drug concentration, 384-well format, cutoff for positive-scoring molecules 3-fold increase, read-out: AK-based Prestwick Library Screening Results, S. aureus (increase in extracellular AK activity)) was 0.9, the fold induction at 50 µM ([2]; 50 μM final drug concentration, 384-well format, cutoff for positive-scoring molecules 3-fold increase, read-out: AK-based Prestwick Library Screening Results, A. baumannii (increase in extracellular AK activity)) was 0.9 and the fold induction at 50 µM (K. pneumoniae; 50 μM final drug concentration, 384-well format, cutoff for positive-scoring molecules 3-fold increase, read-out: AK-based Prestwick Library Screening Results, K. pneumoniae (increase in extracellular AK activity)) was 0.8. The fold induction at 50 µM (E. cloacae; 50 μM final drug concentration, 384-well format, cutoff for positive-scoring molecules 3-fold increase, read-out: AK-based Prestwick Library Screening Results, E. cloacae (increase in extracellular AK activity)) was 1.
